The values that follow come from ChEMBL document CHEMBL1130795, “Synthesis and SAR of a novel, potent and structurally simple LTD4 antagonist of the quinoline class” (Bioorg Med Chem Lett, 1998).

In assay [1] the target is T1, Cysteinyl leukotriene receptor 1 (Cavia porcellus) (UniProt Q2NNR5).
T1 sequence (whole entry): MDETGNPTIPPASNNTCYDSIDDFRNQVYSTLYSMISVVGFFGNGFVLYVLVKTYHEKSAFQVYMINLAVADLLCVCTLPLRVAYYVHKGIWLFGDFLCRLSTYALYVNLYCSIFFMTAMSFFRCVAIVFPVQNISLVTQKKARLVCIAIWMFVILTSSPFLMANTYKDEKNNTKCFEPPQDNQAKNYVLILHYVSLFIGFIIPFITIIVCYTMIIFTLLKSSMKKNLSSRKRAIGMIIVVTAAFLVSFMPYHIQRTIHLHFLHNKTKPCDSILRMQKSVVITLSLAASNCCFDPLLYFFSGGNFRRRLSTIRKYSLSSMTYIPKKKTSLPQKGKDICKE
Put plainly: In vitro antagonistic activity against LTD4 in guinea pig ileum at 240 nM. Type of assay: functional, tissue-based.

Assay [2] concerns the target Cysteinyl leukotriene receptor 1 (Cavia porcellus). As to the kind of experiment: In vitro for antagonistic activity against LTD4 receptor in guinea pig ileum.
Assay [3] deals with Cavia porcellus. Put plainly: Compound was evaluated in vivo for LTD4-induced bronchospasm in guinea pig. Type of assay: functional.
Assay [4] deals with T2, Cysteinyl leukotriene receptor 1 (Cavia porcellus, UniProt Q2NNR5).
T2 sequence (Q2NNR5 whole entry): T1 sequence (whole entry)
Put plainly: In vitro inhibition of [3H]LTD4 binding to guinea pig lung membrane. Type of assay: tissue-based.

In assay [5] the test system is Cavia porcellus. As to the kind of experiment: Compound was evaluated in vivo for LTD4-induced bronchospasm in guinea pig; IA means inactive at 10 mg/kg p.o. Type of assay: functional, organism-based. Further details: dose 10 mg/kg.
Assay [6] deals with T1, Cysteinyl leukotriene receptor 1 (Cavia porcellus). Put plainly: In vitro antagonistic activity against LTD4 in guinea pig ileum at 200 nM. Type of assay: functional, tissue-based.

Activity calls are given as the source filed them. No cut-off for these calls is given here.

With `CCC(CC)(CC(=O)Nc1cccc(OCc2ccc3ccc(O)cc3n2)c1)C(=O)O`, the inhibition in assay [1] turned out to be 0%. As for `CCC(CC)(CC(=O)Nc1cccc(/C=C/c2ccc3ccc(F)cc3n2)c1)C(=O)O`, the IC50 in assay [2] worked out at 0.4 nM. Regarding `COc1cc(C(=O)NS(=O)(=O)c2ccccc2C)ccc1Cc1cn(C)c2ccc(NC(=O)OC3CCCC3)cc12` [ZAFIRLUKAST], in assay [3], the 50% effect level (ED50) was put at a dose of 0.55 mg/kg. In turn, `CCC(CC)(CC(=O)Nc1cccc(SCc2ccc3ccc(F)cc3n2)c1)C(=O)O` came in with an IC50 in assay [2] of 4 nM.

The compound `CCC(CC)(CC(=O)Nc1cccc(OCc2ccc3cc4c(cc3n2)CCC4)c1)C(=O)O` returned an IC50 in assay [2] of 9 nM. The same measure, in the same setting: next, `O=C(CC1(C(=O)O)CCCCC1)Nc1cccc(OCc2ccc3ccc(F)cc3n2)c1`: 7.3 nM; `CCC(CC)(CC(=O)Nc1cccc(OCc2ccc3ccc(OC)cc3n2)c1)C(=O)O`: 80 nM. On the same count and under the same terms, next, `CCC(C)(CC(=O)Nc1cccc(OCc2ccc3ccc(F)cc3n2)c1)C(=O)O` (configuration not stated): 6.4 nM; `CCC(CC)(CC(=O)Nc1cccc(OCc2ccc3cc(F)c(F)cc3n2)c1)C(=O)O`: 0.5 nM; `CCCCC(CCCC)(CC(=O)Nc1cccc(OCc2ccc3ccc(F)cc3n2)c1)C(=O)O`: 1 nM. The same measure, in the same setting: as for `CCC(CC)(CC(=O)Nc1cccc(OCc2ccc3ccc(C(C)=O)cc3n2)c1)C(=O)O`, the figure is 2500 nM. Consider `CCC(CC)(CC(=O)Nc1cccc(OCc2ccc3ccc(F)cc3n2)c1)C(=O)O`, for which the figures for the IC50 in assay [4] and in assay [2] were 6 nM and 0.2 nM, respectively. In assay [3], this compound had a 50% effective dose (ED50) of 0.07 mg/kg. Compound `CCCC(CCC)(CC(=O)Nc1cccc(OCc2ccc3ccc(F)cc3n2)c1)C(=O)O` displayed a 50% inhibitory concentration (IC50) in assay [2] of 2 nM. The same measure, in the same setting: next, `CCC(CC)(CC(=O)Nc1cccc(OCc2ccc3ccc(C)cc3n2)c1)C(=O)O`: 11 nM; `CCC(CC)(CC(=O)Nc1cccc(COc2ccc3ccccc3n2)c1)C(=O)O`: 3900 nM; `CCC(CC)(CC(=O)Nc1cccc(OCc2ccc3ccc(OC(F)(F)F)cc3n2)c1)C(=O)O`: 9 nM.

In assay [2], `CCC(CC)(CC(=O)Nc1cccc(OCc2ccc3ccc(Br)cc3n2)c1)C(=O)O` came in with a half-maximal inhibitory concentration (IC50) of 4 nM.

`CCC(CC)(CC(=O)Nc1cccc(OCc2ccc3cc(F)ccc3n2)c1)C(=O)O`: the half-maximal inhibitory concentration (IC50) in assay [2] amounted to 2 nM. Still for that read-out and setting: as for `CCC(CC)(CC(=O)Nc1cccc(OCc2ccc3cccc(F)c3n2)c1)C(=O)O`, the figure is 6 nM; as for `CC(C)(CC(=O)Nc1cccc(OCc2ccc3ccc(F)cc3n2)c1)C(=O)O`, 1.4 nM; as for `CCC(CC)(CC(=O)Nc1cccc(OCc2ccc3cc(C)ccc3n2)c1)C(=O)O`, 24 nM.

In assay [2], `CCC(CC)(CC(=O)O)C(=O)Nc1cccc(OCc2ccc3ccc(F)cc3n2)c1` yielded a half-maximal inhibitory concentration (IC50) of 140 nM. Take `O=C(O)CCC(=O)Nc1cccc(OCc2ccc3ccc(F)cc3n2)c1`: the 50% inhibitory concentration (IC50) in assay [2] came out at 200 nM. Turning to `CCC(CC)(CC(=O)Nc1cccc(OCc2ccc3ccc(Cl)cc3n2)c1)C(=O)O`, the IC50 in assay [4] stood at 64 nM; in assay [2] it was 0.8 nM. Besides, the ED50 in assay [3] amounted to 0.11 mg/kg. As to `CCC(CC)(CC(=O)Nc1cccc(OCc2ccc3ccc(C(F)(F)F)cc3n2)c1)C(=O)O`, in assay [5], the ED50 result was “inactive”. The 50% inhibitory concentration (IC50) in assay [2] was found to be 3 nM.

Turning to `CCC(CC)(CC(=O)Nc1cccc(OCc2ccc3ccc(OCc4ccccc4)cc3n2)c1)C(=O)O`, the inhibition in assay [6] was found to be 0%.

As to `O=C(CC1(C(=O)O)CCCC1)Nc1cccc(OCc2ccc3ccc(F)cc3n2)c1`, in assay [2], the half-maximal inhibitory concentration (IC50) is reported as 10 nM.

Consider `CCC(CC)(CC(=O)Nc1cccc(OCc2ccc3cc(C)c(C)cc3n2)c1)C(=O)O`, for which the IC50 in assay [2] is 11 nM. Turning to `CCC(CC)(CC(=O)Nc1cccc(OCc2ccc3ccccc3n2)c1)C(=O)O`, the values for the IC50 in assay [4] and in assay [2] were 9 nM and 0.9 nM, respectively. In addition, the median effective dose (ED50) in assay [3] is 0.42 mg/kg. `CCC(CC)(CC(=O)Nc1cccc(OCc2ccc3c(F)cccc3n2)c1)C(=O)O` showed an IC50 in assay [2] of 0.3 nM.

The term inhibition denotes the share of the control response that was lost under treatment. A high value points to strong suppression. The term IC50 denotes the concentration needed to halve the response being measured. As usually defined, the ED50 is the midpoint of the dose-response relation.
